# Test results from patent US12485174B2, “HDAC6-activated macrophages, compositions, and uses thereof” (The George Washington University, A Congressionally …, priority 2019, dated 2025).
# Tests used:
# [1] = tested on: SM1-OVA murine melanoma cells; assay: MHCI and MHCI-SIINFEKL levels in SM1-OVA melanoma cells by flow cytometry; assay type: cell-based, mouse; details: for MHC-I mediated SIINFEKL antigen presentation: over time
# Description: FIG. 3 is a bar graph showing the MHCI and MHCI-SIINFEKL levels after SM1-OVA (SM1 cells expressing OVA peptide) melanoma cells were treated with 5 μM NextA for 24 hours. MHCI and MHCI-SIINFEKL levels were measured by FACS.
# FIG. 25 is a panel of four bar graphs showing the MHCI-SIINFEKL levels when SM1 cells stably expressing OVA (SM1-OVA cells) peptide are exposed to 4 Gy of radiation, NextA, or a combination at the times indicated. MHC-I mediated SIINFEKL antigen presentation was measured by flow cytometry.
# Cell culture: SM1 murine melanoma cells were obtained from Dr. A. Ribas at the University of California, Los Angeles, and cultured in an incubator in RPMI 1640, 1% penicillin-streptomycin, and 10% fetal bovine serum at 37° C. with 5% CO2.
# (§1) Flow cytometry: Flow cytometry was performed following the protocol described previously. Knox et al., Sci Rep. 2019 Oct. 10; 9(1):14824. doi: 10.1038/s41598-019-51403-6. Briefly, mice were euthanized following the IACUC protocol, and tumor cells were processed into a single cell suspension for analysis by flow cytometry with tumor digestion buffer. The following antibodies were used to stain cell surface markers expressed by different immune cells. All the antibodies were purchased from Biolegend (San Diego, CA) unless otherwise specified. Myeloid cell surface markers are as follows: APC anti-mouse CD80 (clone 16-10A1), PE/Cy7 anti-mouse CD206 (MMR) (clone C068C2), APC/Fire™ 750 anti-mouse CD45.2 (clone 104), FITC anti-mouse H-2 (clone M1/42), Brilliant Violet 785™ anti-mouse F4/80 (clone BM8), and Alexa Fluor® 700 anti-mouse CD3 (clone 17A2). To distinguish between MHCI and MHCI-bound to SIINFEKL, we used APC anti-mouse H-2Kb bound to SIINFEKL antibody (clone 25-D1.16). Multi-color flow data acquisition was performed on BD Celesta, and data analysis was performed with FlowJo software (version 10.3). Statistical analyses were performed with GraphPad Prism Software (version 7.03).
# The combination of radiation and HDAC6 inhibition increases antigen presentation in a time dependent manner. […] Radiation with HDAC6 inhibition increases antigen presentation in tumor cells. FIG. 25. The sequencing of NextA and radiation treatment for effective antigen presentation in tumor cells is show in FIG. 26.
# [2] = tested on: bone marrow derived macrophages; assay: Gene expression of polarization markers, cytokines and antigen processing genes in macrophages by quantitative real-time PCR; assay type: cell-based, mouse
# Description: Quantitative analysis of gene expression. Total RNA was isolated from cells following the manufacturer's instructions of QIAzol lysis reagent (Qiagen, 79306). RNA quantification was done using a NanoDrop One spectrophotometer (NanoDrop Technologies). Samples with absorbance at 260/280 nm ratios over 1.9 were used for cDNA synthesis with the iScript cDNA synthesis kit (Bio-Rad, 1708891). Synthesized cDNA from 1 μg of total RNA was diluted 1:10 with nuclease-free water. The quantitative PCR analysis was performed using iQ SYBR Green Supermix (Bio-Rad, 1708882) on a CFX96 real-time system (Bio-Rad). Gene expression analysis was performed using the 2^−ΔΔCt method, and target mRNA levels were normalized to GAPDH expression. Cycling conditions were used as per the manufacturer's instructions. Single PCR product amplification was confirmed by melting curve analysis in all the experiments performed.
# (§2) Bone marrow derived macrophages: For macrophage isolation, bone marrow from 6-12 weeks old C57BL/6 mouse was used following an IACUC approved protocol. Briefly, femurs and tibia bones were isolated after removing the skeletal muscles. The bone marrow was flushed with RPMI complete medium supplemented with non-essential amino acids. A single-cell suspension of bone marrow was prepared with repeated pipetting and incubated with 20 ng/mL of mouse recombinant M-CSF (Biolegend) at 37° C. for 4 days to differentiate into macrophages.
# Further validation of M2 polarization markers at gene expression levels by quantitative real-time PCR indicate that Arginase I, IL-10 and TGFβ, which are tumor-promoting factors, were decreased. FIG. 9, FIG. 10, and FIG. 11. The expression of M1 polarization markers and anti-tumor, pro-inflammatory cytokines such as TNFα and IL-1B were increased. FIG. 12 and FIG. 13.
# [3] = tested on: bone marrow-derived macrophages; assay: SIINFEKL antigen cross-presentation (XPT) by polarized bone marrow derived macrophages, MHCI-SIINFEKL antibody, FACS; assay type: cell-based, mouse; details: M1 polarized macrophages pre-treated with NextA, OVA peptide 24 hours
# Description: FIG. 1 is a line graph showing the SIINFEKL antigen levels derived from OVA peptide and detected by MHCI-SIINFEKL specific antibody as measured by FACS in bone marrow-derived macrophages from wild type or HDAC6 KO (knockout) mice. Macrophages were pre-treated with Nexturastat A (NextA) 5 μM and then polarized for 24 hours.
# FIG. 2 is a graph showing the MHCI-SIINFEKL levels in polarized macrophages derived from wild-type mice pre-treated with NextA and incubated with OVA peptide for 24 hours.
# as §2, with “macrophages. […]” for “macrophages.”
# Endogenous peptides are usually presented through MHC-I to CD8 T-cells and exogenous (from other cells such as tumors) peptides through MHC-II to CD4 T-cells. […] Taking advantage of a highly specific antibody recognizing MHC-I loaded with SIINFEKL peptide, efficiency of antigen XPT was determined. […]
# [4] = tested on: Bone marrow derived macrophages (BMDMs); assay: Polarization of bone marrow derived macrophages to M1 (LPS/IFNγ) or M2 (IL4/IL13) phenotype by flow cytometry; assay type: cell-based, mouse
# Description: as §2, §1
# Bone marrow derived macrophages (BMDMs) isolated from femur and tibia of C57BL/6 mouse were differentiated into macrophages with M-CSF. These naïve macrophages were pre-treated with NextA and polarized to M1 macrophages with LPS/IFNγ or M2 macrophages with IL4/IL13.
# [5] = M1 macrophages compared to M0 after treatment
# [6] = pre-treated polarized macrophages
structure (smiles),measurement,setting,value
"CCCCN(Cc1ccc(C(=O)NO)cc1)C(=O)Nc1ccccc1 [NextA, Nexturastat A]",presence of MHC I,[1]; 5 μM NextA for 24 hours,increased
same,presence of SIINFEKL-loaded MHC-I,[1]; 5 μM NextA for 24 hours,increased
same,MHC-I mediated SIINFEKL antigen presentation,[1]; NextA alone,time dependent increases
same,MHC-I mediated SIINFEKL antigen presentation,[1]; NextA in combination with 4 Gy of radiation,time dependent increases
same,concentration over which high cytotoxicity is induced,Macrophages,over 5 μM
same,IL1 beta expression (M1 pro-inflammatory cytokine),[2]; M0 macrophages,increases
same,IL10 expression (M2 anti-inflammatory cytokine),[2]; M0 macrophages,decreased
same,IL12 expression (M1 pro-inflammatory cytokine),[2]; M0 macrophages,increases
same,TGF beta expression (M2 anti-inflammatory cytokine),[2]; M0 macrophages,decreased
same,TNF alpha expression (M1 pro-inflammatory cytokine),[2]; M0 macrophages,increases
same,ERAP1 gene expression,[2]; [5],increased
same,TAP1 gene expression,[2]; [5],increased
same,TAP2 gene expression,[2]; [5],increased
same,TAPBP gene expression,[2]; [5],increased
same,Arginase I gene expression (M2 polarization marker),[2]; [6],decreased
same,IL-1B gene expression (M1 marker),[2]; [6],increased
same,IL-10 gene expression (M2 marker),[2]; [6],decreased
same,TGFβ gene expression (M2 marker),[2]; [6],decreased
same,TNFα gene expression (M1 marker),[2]; [6],increased
same,M1 XPT (cross-presentation of SIINFEKL peptide by MHC-I),[3],increased
same,pro-tumoral M2 phenotype of macrophages,[4]; data not shown,reduced
same,polarization of M2 macrophages,"[4]; pre-treatment of naïve macrophages, then IL4/IL13",decreased
same,polarization of M1 macrophages,"[4]; pre-treatment of naïve macrophages, then LPS/IFNγ",did not affect
